Experimental data from patent US4393225A, “AI-77 Compounds and pharmaceutically acceptable salts thereof” (Asahi Kasei Kogyo Kabushiki Kaisha, priority 1979, dated 1983).
Where two headings read alike, the source gives them in different places.

Tested on: ulcer
Assay: Anti-ulcer test (restraint and water immersion ulcer in rats, i.p.)
Format: in vivo, Male Wistar rats
Details: Rattus norvegicus, ip, read-out: % Inhibition of Ulcer
Description: The anti-ulcer and anti-edema activity of the compounds was evaluated in efficacy tests described below.
Male Wistar rats weighing about 150 g on average were not fed for 24 hours before the test. Then a solution or suspension of a predetermined concentration of the test compound in physiological saline was administered to them intraperitoneally. One hour after the administration,each rat was restrained in a net cage and submerged in a water both (21° C.) from the tail to xiphistrenun for 6 hours. Test animals were then killed (by dislocation of the cervical vertebrae), the stomach was removed and incised along the curvatura ventriculi major, and the inside wall of the stomach was pathologically examined under microscopic observation. Rats in which the occurrence of an ulceration was substantially not observed were rated O, while others were rated 0.5, 1, 2 or 3, depending on the severity of the ulcer development. The percent inhibition of ulcer was calculated by the following formula: [formula]

Compound	inhibition in vivo at 50 mg/kg (50 mg/kg i.p.) [%]	inhibition in vivo at 50 mg/kg [%]
CC(C)CC(NC(=O)C(O)C1OC(=O)CC1NC(=O)c1nnnn1C)C1Cc2cccc(O)c2C(=O)O1 (stereo not drawn) [IIIa-1-27]	66	
CC(=O)n1cccc1C(=O)NC1CC(=O)OC1C(O)C(=O)NC(CC(C)C)C1Cc2cccc(O)c2C(=O)O1 (stereo not drawn) [IIIa-1-28]	66	
CC(C)CC(NC(=O)C(O)C1OC(=O)CC1NC(=O)c1cccn1C)C1Cc2cccc(O)c2C(=O)O1 (stereo not drawn) [IIIa-1-29]	66	
COc1ccc2ncc(C(=O)NC3CC(=O)OC3C(O)C(=O)NC(CC(C)C)C3Cc4cccc(O)c4C(=O)O3)cc2c1 (stereo not drawn) [IIIa-1-30]	56	
CC(C)CC(NC(=O)C(O)C1OC(=O)CC1NC(=O)CCCBr)C1Cc2cccc(O)c2C(=O)O1 (stereo not drawn) [IIIa-1-31]	66	
CCC(=O)C(=O)NC1CC(=O)OC1C(O)C(=O)NC(CC(C)C)C1Cc2cccc(O)c2C(=O)O1 (stereo not drawn) [IIIa-1-32]	66	
CC(C)CC(NC(=O)C(O)C1OC(=O)CC1NC(=O)C1CCCCC1=O)C1Cc2cccc(O)c2C(=O)O1 (stereo not drawn) [IIIa-1-33]	66	
CC(=O)Oc1ccc(C(=O)NC2CC(=O)OC2C(O)C(=O)NC(CC(C)C)C2Cc3cccc(O)c3C(=O)O2)cc1 (stereo not drawn) [IIIa-1-34]	66	
CC(C)CC(NC(=O)C(O)C1OC(=O)CC1NC(=O)c1ccc(O)cc1)C1Cc2cccc(O)c2C(=O)O1 (stereo not drawn) [IIIa-1-35]	66	
CCOC(=O)CCC(=O)NC1CC(=O)OC1C(O)C(=O)NC(CC(C)C)C1Cc2cccc(O)c2C(=O)O1 (stereo not drawn) [IIIa-1-36]	66	
CSCC(=O)NC1CC(=O)OC1C(O)C(=O)NC(CC(C)C)C1Cc2cccc(O)c2C(=O)O1 (stereo not drawn) [IIIa-1-44]	66	
CCCCCSCC(=O)NC1CC(=O)OC1C(O)C(=O)NC(CC(C)C)C1Cc2cccc(O)c2C(=O)O1 (stereo not drawn) [IIIa-1-45]	66	
CSc1ccc(C(=O)NC2CC(=O)OC2C(O)C(=O)NC(CC(C)C)C2Cc3cccc(O)c3C(=O)O2)cc1 (stereo not drawn) [IIIa-1-46]	66	
CCCCCSc1ccc(C(=O)NC2CC(=O)OC2C(O)C(=O)NC(CC(C)C)C2Cc3cccc(O)c3C(=O)O2)cc1 (stereo not drawn) [IIIa-1-47]	56	
CC(=O)OC(C)CC(=O)NC1CC(=O)OC1C(O)C(=O)NC(CC(C)C)C1Cc2cccc(O)c2C(=O)O1 (stereo not drawn) [IIIa-1-48]	66	
CCCCCC(=O)OC(C)CC(=O)NC1CC(=O)OC1C(O)C(=O)NC(CC(C)C)C1Cc2cccc(O)c2C(=O)O1 (stereo not drawn) [IIIa-1-49]	56	
COC(=O)c1ccc(C(=O)NC2CC(=O)OC2C(O)C(=O)NC(CC(C)C)C2Cc3cccc(O)c3C(=O)O2)cc1 (stereo not drawn) [IIIa-1-50]	66	
CCCCCOC(=O)c1ccc(C(=O)NC2CC(=O)OC2C(O)C(=O)NC(CC(C)C)C2Cc3cccc(O)c3C(=O)O2)cc1 (stereo not drawn) [IIIa-1-51]	44	
C#CC(=O)NC1CC(=O)OC1C(O)C(=O)NC(CC(C)C)C1Cc2cccc(O)c2C(=O)O1 (stereo not drawn) [IIIa-1-52]	66	
CC(C)CCc1ccc(C(C)C(=O)NC2CC(=O)OC2C(O)C(=O)NC(CC(C)C)C2Cc3cccc(O)c3C(=O)O2)cc1 (stereo not drawn) [IIIa-1-53]	56	

Compound	inhibition in vivo at 50 mg/kg (50 mg/kg i.p.) [%]	inhibition in vivo at 50 mg/kg [%]
C/C=C/C(=O)NC1CC(=O)OC1C(O)C(=O)NC(CC(C)C)C1Cc2cccc(O)c2C(=O)O1 (stereo not drawn) [IIIa-1-54]	66	
CC(C)CC(NC(=O)C(O)C1OC(=O)CC1NC(=O)C=Cc1ccoc1)C1Cc2cccc(O)c2C(=O)O1 (stereo not drawn) [IIIa-1-57]	56	
CC(C)CC(NC(=O)C(O)C1OC(=O)CC1NC(=O)Cc1cccnc1)C1Cc2cccc(O)c2C(=O)O1 (stereo not drawn) [IIIa-1-58]	66	
CC(C)CC(NC(=O)C(O)C1OC(=O)CC1NC(=O)C1CCC=CO1)C1Cc2cccc(O)c2C(=O)O1 (stereo not drawn) [IIIa-1-59]	66	
CC(C)CC(NC(=O)C(O)C1OC(=O)CC1NC(=O)c1cocc1C(=O)O)C1Cc2cccc(O)c2C(=O)O1 (stereo not drawn) [IIIa-1-60]	66	
CC(C)CC(NC(=O)C(O)C1OC(=O)CC1NC(=O)C1CCCCCCC1)C1Cc2cccc(O)c2C(=O)O1 (stereo not drawn) [IIIa-1-62]	66	
CC(C)CC(NC(=O)C(O)C1OC(=O)CC1NC(=O)CCC1CCCC1)C1Cc2cccc(O)c2C(=O)O1 (stereo not drawn) [IIIa-1-63]	66	
CC(C)CC(NC(=O)C(O)C1OC(=O)CC1NC(=O)Cc1ccc2ccccc2c1)C1Cc2cccc(O)c2C(=O)O1 (stereo not drawn) [IIIa-1-64]	56	
Cc1ccc(CC(=O)NC2CC(=O)OC2C(O)C(=O)NC(CC(C)C)C2Cc3cccc(O)c3C(=O)O2)cc1 (stereo not drawn) [IIIa-1-65]	66	
CC(C)=CCC/C(C)=C/CC/C(C)=C/CCC(=O)NC1CC(=O)OC1C(O)C(=O)NC(CC(C)C)C1Cc2cccc(O)c2C(=O)O1 (stereo not drawn) [IIIa-1-67]	66	
COC(=O)C1CCC(C(=O)NC2CC(=O)OC2C(O)C(=O)NC(CC(C)C)C2Cc3cccc(O)c3C(=O)O2)CC1 (stereo not drawn) [IIIa-1-68]	66	
CC(C)CC(NC(=O)C(O)C1OC(=O)CC1NC(=O)c1ccc(C(C)C)cc1)C1Cc2cccc(O)c2C(=O)O1 (stereo not drawn) [IIIa-1-69]	66	
Cc1ccc(C(C)C)cc2c(C(=O)NC3CC(=O)OC3C(O)C(=O)NC(CC(C)C)C3Cc4cccc(O)c4C(=O)O3)c(C)cc1-2 (stereo not drawn) [IIIa-1-70]	56	
CC(C)CC(NC(=O)C(O)C1OC(=O)CC1NC(=O)C1CC2C=CC1C2)C1Cc2cccc(O)c2C(=O)O1 (stereo not drawn) [IIIa-1-71]		66
COC1CCC(C(=O)NC2CC(=O)OC2C(O)C(=O)NC(CC(C)C)C2Cc3cccc(O)c3C(=O)O2)CC1 (stereo not drawn) [IIIa-1-73]	66	
CC(=O)OC1CCC(C(=O)NC2CC(=O)OC2C(O)C(=O)NC(CC(C)C)C2Cc3cccc(O)c3C(=O)O2)CC1 (stereo not drawn) [IIIa-1-74]	66	
CC(C)CC(NC(=O)C(O)C1OC(=O)CC1NC(=O)Cn1cnnn1)C1Cc2cccc(O)c2C(=O)O1 (stereo not drawn) [IIIa-1-75]	66	
CCCCCc1ccc(C(=O)NC2CC(=O)OC2C(O)C(=O)NC(CC(C)C)C2Cc3cccc(O)c3C(=O)O2)cc1 (stereo not drawn) [IIIa-1-76]	66	
CCCC=Cc1ccc(C(=O)NC2CC(=O)OC2C(O)C(=O)NC(CC(C)C)C2Cc3cccc(O)c3C(=O)O2)cc1 (stereo not drawn) [IIIa-1-77]	66	
CC(C)CC(NC(=O)C(O)C1OC(=O)CC1NC(=O)CCCCCCCCCO)C1Cc2cccc(O)c2C(=O)O1 (stereo not drawn) [IIIa-1-78]	66	

Compound	inhibition in vivo at 50 mg/kg (50 mg/kg i.p.) [%]	inhibition in vivo at 50 mg/kg [%]
CC(C)CC(NC(=O)C(O)C1OC(=O)CC1NC(=O)CC1CC1)C1Cc2cccc(O)c2C(=O)O1 (stereo not drawn) [IIIa-1-79]	66	
CC(Br)=C(C)C(=O)NC1CC(=O)OC1C(O)C(=O)NC(CC(C)C)C1Cc2cccc(O)c2C(=O)O1 (stereo not drawn) [IIIa-1-80]	66	
CC(C)=CC(=O)NC1CC(=O)OC1C(O)C(=O)NC(CC(C)C)C1Cc2cccc(O)c2C(=O)O1 (stereo not drawn) [IIIa-1-81]	66	
CSC(C)(C)CC(=O)NC1CC(=O)OC1C(O)C(=O)NC(CC(C)C)C1Cc2cccc(O)c2C(=O)O1 (stereo not drawn) [IIIa-1-82]		66
COC(C)(C)CC(=O)NC1CC(=O)OC1C(O)C(=O)NC(CC(C)C)C1Cc2cccc(O)c2C(=O)O1 (stereo not drawn) [IIIa-1-83]	66	
CC(C)CC(NC(=O)C(OC(=O)C(Cl)(Cl)Cl)C1OC(=O)CC1NC(=O)C(Cl)(Cl)Cl)C1Cc2cccc(O)c2C(=O)O1 (stereo not drawn) [IIIa-2-1]	44	
CC(=O)NC1CC(=O)OC1C(OC(C)=O)C(=O)NC(CC(C)C)C1Cc2cccc(O)c2C(=O)O1 (stereo not drawn) [IIIa-2-2]	44	
CC(=O)OC(C(=O)NC(CC(C)C)C1Cc2cccc(O)c2C(=O)O1)C1OC(=O)CC1NC(=O)CC(C)C (stereo not drawn) [IIIa-2-3]	44	
CCCCCCCCCCCCCCCCCC(=O)NC1CC(=O)OC1C(OC(C)=O)C(=O)NC(CC(C)C)C1Cc2cccc(O)c2C(=O)O1 (stereo not drawn) [IIIa-2-4]	33	
CCCCCCCCC=CCCCCCCCC(=O)NC1CC(=O)OC1C(OC(C)=O)C(=O)NC(CC(C)C)C1Cc2cccc(O)c2C(=O)O1 (stereo not drawn) [IIIa-2-5]	33	
CC(=O)OC(C(=O)NC(CC(C)C)C1Cc2cccc(O)c2C(=O)O1)C1OC(=O)CC1NC(=O)C1CCCO1 (stereo not drawn) [IIIa-2-6]	44	
CC(=O)OC(C(=O)NC(CC(C)C)C1Cc2cccc(O)c2C(=O)O1)C1OC(=O)CC1NC(=O)c1ccc(C)cc1 (stereo not drawn) [IIIa-2-8]	44	
CC(=O)OC(C(=O)NC(CC(C)C)C1Cc2cccc(O)c2C(=O)O1)C1OC(=O)CC1NC(=O)c1ccc(OCCC(C)C)cc1 (stereo not drawn) [IIIa-2-9]	33	
CCC(=O)OC(C(=O)NC(CC(C)C)C1Cc2cccc(O)c2C(=O)O1)C1OC(=O)CC1NC(C)=O (stereo not drawn) [IIIa-2-10]	44	
CCCC(=O)NC1CC(=O)OC1C(OC(=O)CCC)C(=O)NC(CC(C)C)C1Cc2cccc(O)c2C(=O)O1 (stereo not drawn) [IIIa-2-11]	33	
CCC(=O)OC(C(=O)NC(CC(C)C)C1Cc2cccc(O)c2C(=O)O1)C1OC(=O)CC1NC(=O)C(Cl)(Cl)Cl (stereo not drawn) [IIIa-2-12]	44	
CC(=O)NC1CC(=O)OC1C(OC(C)=O)C(=O)NC(CC(C)C)C1Cc2cccc(OC(C)=O)c2C(=O)O1 (stereo not drawn) [IIIa-3-1]	33	
CCC(=O)OC(C(=O)NC(CC(C)C)C1Cc2cccc(OC(=O)C(C)C)c2C(=O)O1)C1OC(=O)CC1NC(C)=O (stereo not drawn) [IIIa-3-2]	33	
CC(=O)Oc1cccc2c1C(=O)OC(C(CC(C)C)NC(=O)C(OC(C)=O)C1OC(=O)CC1NC(=O)CC(C)C)C2 (stereo not drawn) [IIIa-3-3]	33	
CCCCCCCCCCCCCCCCCC(=O)NC1CC(=O)OC1C(OC(C)=O)C(=O)NC(CC(C)C)C1Cc2cccc(OC(C)=O)c2C(=O)O1 (stereo not drawn) [IIIa-3-4]	22	
